Data published in PubChem BioAssay AID2060609 (Molecular Pharmacology Branch, DTP, NCI, 2025).

System: 855422-203-R-J1-PDC complex spheroids, viability
Test: Anticancer human tumor 855422-203-R-J1-PDC patient-derived bladder carcinoma cell line growth inhibition [CLK]
Conditions: for IC50: curve of first compound; for viability, T/C: stronger effect = lower value
Text: A high-throughput screen of multi-cell type tumor spheroids was designed to identify active combinations of […] and targeted small molecules. Complex spheroids include a stromal component modeled by human endothelial cells (HUVEC) and fibroblasts modeled by human mesenchymal stem cells (MSCs). The concentration ranges selected for each drug and investigational agent were based upon clinically achievable concentrations if the clinical Cmax of the agent was known.
Compounds. The drugs and investigational agents: cirtuvivint (SM08502; NSC835563), CC-671 (NSC850746), vemurafenib (NSC761431), tapotoclax (NSC804041), sotorasib (NSC818433), adagrasib (NSC831453), MRTX-1133 (NSC836407), BAY2416964 (NSC825713), copanlisib (NSC816437), inavolisib (NSC800729), abemaciclib (NSC768073), osimertinib (NSC779217), entinostat (NSC756642), eltanexor (KPT-8602, NSC794443), venetoclax (NSC766270), ceralasertib (NSC777638), bortezomib (NSC756655), olaparib (NSC753686), talazoparib (NSC767125), alisertib (NSC759677), peposertib (NSC802822), gemcitabine (NSC613327), 5-fluorouracil (NSC19893), SN-38 (NSC673596), oxaliplatin (NSC266046), paclitaxel (NSC125973), and doxorubicin (NSC123127), were obtained from the National Cancer Institute (NCI) Developmental Therapeutics Program Chemical Repository. The FDA-approved anticancer drug set is available from the Developmental Therapeutics Program at https://dtp.cancer.gov/organization/dscb/obtaining/available plates.htm. […] The stock solutions were prepared in dimethyl sulfoxide (DMSO, Sigma-Aldrich, St. Louis, MO, cat. D2650), except for the platinum complexes which were prepared in saline (Quality Biological, Gaithersburg, MD, cat. 114-055-101), at 800-fold the tested concentration and stored at -70 degrees C prior to their use. All drugs and investigational agents were tested over a range starting from a high concentration at or near the clinical Cmax and decreasing in half-log increments. If the clinical Cmax for an agent had not been determined, the highest concentration tested was 10 microM.
Cell Culture. All cells were maintained in an incubator at 37 degrees C and 5% CO2 with 95% humidity. The PDC lines were cultured according to standard operating procedures established by the NCI PDMR. Briefly, all PDCs were thawed and cultured in Matrigel-coated flasks prepared with a working solution of 1X Ham's F-12 nutrient mix, without supplementation (Invitrogen, Waltham, MA, cat. 11765054), 100 U/mL penicillin-streptomycin (Invitrogen, cat. 15140122), and 2.5% Matrigel (Corning Inc., Corning, NY, cat. 354248) for the first three passages. The 947758-054-R-J2-PDC line was cultured in 6B/Colon 1A media, which includes advanced DMEM/F-12 (Thermo Fisher Scientific, cat. 12634028), 10 mM HEPES (Thermo Fisher Scientific, cat. 15630080), 1X GlutaMAX supplement (Thermo Fisher Scientific, cat. 35050061), 0.1 mg/mL primocin (InvivoGen, cat. ant-pm-2), 10% defined fetal bovine serum, heat inactivated (HyClone Laboratories Inc., cat. SH30070.03HI), 1.25 mM N-Acetyl-L-cysteine (Sigma-Aldrich, cat. A9165), 10 mM nicotinamide (Sigma-Aldrich, cat. N0636), 1X B-27 supplement (Thermo Fisher Scientific, cat. 17504044), 1X N-2 supplement (Thermo Fisher Scientific, cat. 17502048), and 10 microM Y-27632 dihydrochloride (Tocris Bioscience, cat. 1254). The 876862-298-R-J1-PDC was cultured in 6E media, which includes all 6B/Colon 1A media components plus 50% L-WRN conditioned media (ATCC, cat. CRL-3276), 50 ng/mL recombinant human EGF recombinant protein (hEGF; Thermo Fisher Scientific, cat. PHG0311), 10 ng/mL recombinant human fibroblast growth factor 10 (hGFG-10; PeproTech, cat. 100-26), 1 ng/mL recombinant human fibroblast growth factor 2 (hFGF-2; PeproTech, cat. 100-18B), and 1 µM prostaglandin E2 (PGE2; Tocris, cat. 2296). The 227483-062-R1-J1-PDC line was cultured in Panc media, containing all 6E components except hFGF-2, with the addition of 500 nM SB-431542 (Selleckchem, cat. S1067) and 10 nM gastrin (Tocris, cat. 3006). […]

[1] = second compound 0.0316 µM, first compound 0.0316 µM
[2] = second compound 0.0316 µM, first compound 0.1 µM
[3] = second compound 0.0316 µM, first compound 0.316 µM
[4] = second compound 0.0316 µM, first compound 1 µM
[5] = second compound 0.0316 µM, first compound 3.16 µM
[6] = second compound 0.0316 µM, first compound 10 µM
[7] = second compound 0.1 µM, first compound 0.0316 µM
[8] = second compound 0.1 µM, first compound 0.1 µM
[9] = second compound 0.1 µM, first compound 0.316 µM
[10] = second compound 0.1 µM, first compound 1 µM
[11] = second compound 0.1 µM, first compound 3.16 µM
[12] = second compound 0.1 µM, first compound 10 µM
[13] = second compound 0.316 µM, first compound 0.0316 µM
[14] = second compound 0.316 µM, first compound 0.1 µM
[15] = second compound 0.316 µM, first compound 0.316 µM
[16] = second compound 0.316 µM, first compound 1 µM
[17] = second compound 0.316 µM, first compound 3.16 µM
[18] = second compound 0.316 µM, first compound 10 µM
[19] = second compound 1 µM, first compound 0.0316 µM
[20] = second compound 1 µM, first compound 0.1 µM
[21] = second compound 1 µM, first compound 0.316 µM
[22] = second compound 1 µM, first compound 1 µM
[23] = second compound 1 µM, first compound 3.16 µM
[24] = second compound 1 µM, first compound 10 µM
[25] = second compound 3.16 µM, first compound 0.0316 µM
[26] = second compound 3.16 µM, first compound 0.1 µM
[27] = second compound 3.16 µM, first compound 0.316 µM
[28] = second compound 3.16 µM, first compound 1 µM
[29] = second compound 3.16 µM, first compound 3.16 µM
[30] = second compound 3.16 µM, first compound 10 µM
[31] = second compound 10 µM, first compound 0.0316 µM
[32] = second compound 10 µM, first compound 0.1 µM
[33] = second compound 10 µM, first compound 0.316 µM
[34] = second compound 10 µM, first compound 1 µM
[35] = second compound 10 µM, first compound 3.16 µM
[36] = second compound 10 µM, first compound 10 µM
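Further: spheroids exposed to drugs for seven days before readout.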
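Wherever viability, T/C is given: 100% = DMSO vehicle control wells.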

`CC1(C)CCC(CN2CCN(c3ccc(C(=O)NS(=O)(=O)c4ccc(NCC5CCOCC5)c([N+](=O)[O-])c4)c(Oc4cnc5[nH]ccc5c4)c3)CC2)=C(c2ccc(Cl)cc2)C1` + CN1CCN(c2cc(C(=O)Nc3cc4cc(-c5cnn(C)c5)ccc4cn3)ccn2)CC1 gave an IC50 (second compound 0.0316 µM) of 6060 nM, an IC50 (second compound 0.1 µM) of 5320 nM and an IC50 (second compound 0.316 µM) of less than 31.6 nM. The IC50 (second compound 1 µM) was less than 31.6 nM, the IC50 (second compound 3.16 µM) was less than 31.6 nM and the IC50 (second compound 10 µM) was less than 31.6 nM. The viability, T/C [1] was 97.3%, the viability, T/C [2] was 96.2% and the viability, T/C [3] was 115%. For the same compound, the viability, T/C [4] was 116%, the viability, T/C [5] was 137% and the viability, T/C [6] was 1.97%. For the same compound, the viability, T/C [7] was 85.1%, the viability, T/C [8] was 81.9% and the viability, T/C [9] was 104%. The viability, T/C [10] was 88.2%, the viability, T/C [11] was 93% and the viability, T/C [12] was 1.08%. It also gave a viability, T/C [13] of 10.7%, a viability, T/C [14] of 11.8% and a viability, T/C [15] of 8.68%. It also gave a viability, T/C [16] of 10.2%, a viability, T/C [17] of 10.3% and a viability, T/C [18] of 0.47%. It also gave a viability, T/C [19] of 0.26%, a viability, T/C [20] of 0.89% and a viability, T/C [21] of 0.24%. It also gave a viability, T/C [22] of 0.46%, a viability, T/C [23] of 0.51% and a viability, T/C [24] of 0.11%. It also gave a viability, T/C [25] of 0.63%, a viability, T/C [26] of 2.77% and a viability, T/C [27] of 0.71%. It also gave a viability, T/C [28] of 0.87%, a viability, T/C [29] of 1.82% and a viability, T/C [30] of 1.58%. It also gave a viability, T/C [31] of 0.52%, a viability, T/C [32] of 0.31% and a viability, T/C [33] of 0.36%. The viability, T/C [34] was 0.45%, the viability, T/C [35] was 0.29% and the viability, T/C [36] was 0.25%.

In the case of `CC(Nc1ccc2c(c1)OCCn1cc(N3C(=O)OCC3C(F)F)nc1-2)C(N)=O` (stereo unspecified) + CN1CCN(c2cc(C(=O)Nc3cc4cc(-c5cnn(C)c5)ccc4cn3)ccn2)CC1, the IC50 (second compound 0.0316 µM) is reported as 280 nM, the IC50 (second compound 0.1 µM) is reported as 242 nM and the IC50 (second compound 0.316 µM) is reported as less than 31.6 nM. It also gave an IC50 (second compound 1 µM) of less than 31.6 nM, an IC50 (second compound 3.16 µM) of less than 31.6 nM and an IC50 (second compound 10 µM) of less than 31.6 nM. The viability, T/C [1] was 88.2%, the viability, T/C [2] was 66.4% and the viability, T/C [3] was 46.1%. For the same compound, the viability, T/C [4] was 35.4%, the viability, T/C [5] was 26.4% and the viability, T/C [6] was 15.5%. It also gave a viability, T/C [7] of 72.1%, a viability, T/C [8] of 69.4% and a viability, T/C [9] of 40.8%. It also gave a viability, T/C [10] of 30.4%, a viability, T/C [11] of 20.1% and a viability, T/C [12] of 13.7%. The viability, T/C [13] was 7.06%, the viability, T/C [14] was 6.03% and the viability, T/C [15] was 4.86%. For the same compound, the viability, T/C [16] was 2.74%, the viability, T/C [17] was 2.03% and the viability, T/C [18] was 0.75%. For the same compound, the viability, T/C [19] was 0.18%, the viability, T/C [20] was 0.12% and the viability, T/C [21] was 0.13%. It also gave a viability, T/C [22] of 0.11%, a viability, T/C [23] of 0.07% and a viability, T/C [24] of 0.06%. For the same compound, the viability, T/C [25] was 0.43%, the viability, T/C [26] was 0.67% and the viability, T/C [27] was 0.28%. The viability, T/C [28] was 0.23%, the viability, T/C [29] was 0.24% and the viability, T/C [30] was 0.18%. The viability, T/C [31] was 0.28%, the viability, T/C [32] was 0.21% and the viability, T/C [33] was 0.23%. It also gave a viability, T/C [34] of 0.3%, a viability, T/C [35] of 0.29% and a viability, T/C [36] of 0.26%.

`COc1c(OCCCN2CCOCC2)ccc2c3n(c(=NC(=O)c4cnc(N)nc4)nc12)CCN3` + CNC(=O)c1ccc(Nc2nc(OC3CCCC3)c3c(-c4ccc5nc(C)oc5c4)c[nH]c3n2)c(OC)c1 showed an IC50 (second compound 0.0316 µM) of 14.2 nM, an IC50 (second compound 0.1 µM) of 6.2 nM and an IC50 (second compound 0.316 µM) of less than 3.16 nM. For the same compound, the IC50 (second compound 1 µM) was less than 3.16 nM, the IC50 (second compound 3.16 µM) was less than 3.16 nM and the IC50 (second compound 10 µM) was less than 3.16 nM. The viability, T/C (second compound 0.0316 µM, first compound 0.00316 µM) was 84.2%, the viability, T/C (second compound 0.0316 µM, first compound 0.01 µM) was 58.8% and the viability, T/C [1] was 29.8%. It also gave a viability, T/C [2] of 10.1%, a viability, T/C [3] of 4.15% and a viability, T/C [4] of 1.68%. It also gave a viability, T/C (second compound 0.1 µM, first compound 0.00316 µM) of 52%, a viability, T/C (second compound 0.1 µM, first compound 0.01 µM) of 49.5% and a viability, T/C [7] of 25.3%. For the same compound, the viability, T/C [8] was 9.48%, the viability, T/C [9] was 3.91% and the viability, T/C [10] was 2.07%. For the same compound, the viability, T/C (second compound 0.316 µM, first compound 0.00316 µM) was 17.3%, the viability, T/C (second compound 0.316 µM, first compound 0.01 µM) was 18.5% and the viability, T/C [13] was 8.61%. The viability, T/C [14] was 7.71%, the viability, T/C [15] was 3.19% and the viability, T/C [16] was 1.46%. For the same compound, the viability, T/C (second compound 1 µM, first compound 0.00316 µM) was 19.4%, the viability, T/C (second compound 1 µM, first compound 0.01 µM) was 16.5% and the viability, T/C [19] was 7.5%. It also gave a viability, T/C [20] of 3.51%, a viability, T/C [21] of 7.67% and a viability, T/C [22] of 1.54%. It also gave a viability, T/C (second compound 3.16 µM, first compound 0.00316 µM) of 18.8%, a viability, T/C (second compound 3.16 µM, first compound 0.01 µM) of 14.2% and a viability, T/C [25] of 10.1%. For the same compound, the viability, T/C [26] was 7.42%, the viability, T/C [27] was 2.07% and the viability, T/C [28] was 1.38%. It also gave a viability, T/C (second compound 10 µM, first compound 0.00316 µM) of 16.3%, a viability, T/C (second compound 10 µM, first compound 0.01 µM) of 11.2% and a viability, T/C [31] of 6.12%. For the same compound, the viability, T/C [32] was 4.26%, the viability, T/C [33] was 3.27% and the viability, T/C [34] was 1.62%.
